According to US20240269139A1, “COMPOUNDS FOR TARGETED PROTEIN DEGRADATION OF KINASES” (DANA-FARBER CANCER INSTITUTE, INC., priority 2020, published 2024):
Where “and” joins values, the source holds several entries; their conditions need not be identical. Identical values can stand only once. Like-named read-outs stand apart in the source and are kept apart here.

What was measured:
Format in all cases: cell-based
[1] = biological target: protein kinases (human kinome) (Homo sapiens, UniProt P42684); conditions: for logFC: ABL2 (P42684) protein abundance, degrader vs DMSO, down
Sequence of protein kinases (human kinome) (Homo sapiens, UniProt P42684) (P42684 whole entry): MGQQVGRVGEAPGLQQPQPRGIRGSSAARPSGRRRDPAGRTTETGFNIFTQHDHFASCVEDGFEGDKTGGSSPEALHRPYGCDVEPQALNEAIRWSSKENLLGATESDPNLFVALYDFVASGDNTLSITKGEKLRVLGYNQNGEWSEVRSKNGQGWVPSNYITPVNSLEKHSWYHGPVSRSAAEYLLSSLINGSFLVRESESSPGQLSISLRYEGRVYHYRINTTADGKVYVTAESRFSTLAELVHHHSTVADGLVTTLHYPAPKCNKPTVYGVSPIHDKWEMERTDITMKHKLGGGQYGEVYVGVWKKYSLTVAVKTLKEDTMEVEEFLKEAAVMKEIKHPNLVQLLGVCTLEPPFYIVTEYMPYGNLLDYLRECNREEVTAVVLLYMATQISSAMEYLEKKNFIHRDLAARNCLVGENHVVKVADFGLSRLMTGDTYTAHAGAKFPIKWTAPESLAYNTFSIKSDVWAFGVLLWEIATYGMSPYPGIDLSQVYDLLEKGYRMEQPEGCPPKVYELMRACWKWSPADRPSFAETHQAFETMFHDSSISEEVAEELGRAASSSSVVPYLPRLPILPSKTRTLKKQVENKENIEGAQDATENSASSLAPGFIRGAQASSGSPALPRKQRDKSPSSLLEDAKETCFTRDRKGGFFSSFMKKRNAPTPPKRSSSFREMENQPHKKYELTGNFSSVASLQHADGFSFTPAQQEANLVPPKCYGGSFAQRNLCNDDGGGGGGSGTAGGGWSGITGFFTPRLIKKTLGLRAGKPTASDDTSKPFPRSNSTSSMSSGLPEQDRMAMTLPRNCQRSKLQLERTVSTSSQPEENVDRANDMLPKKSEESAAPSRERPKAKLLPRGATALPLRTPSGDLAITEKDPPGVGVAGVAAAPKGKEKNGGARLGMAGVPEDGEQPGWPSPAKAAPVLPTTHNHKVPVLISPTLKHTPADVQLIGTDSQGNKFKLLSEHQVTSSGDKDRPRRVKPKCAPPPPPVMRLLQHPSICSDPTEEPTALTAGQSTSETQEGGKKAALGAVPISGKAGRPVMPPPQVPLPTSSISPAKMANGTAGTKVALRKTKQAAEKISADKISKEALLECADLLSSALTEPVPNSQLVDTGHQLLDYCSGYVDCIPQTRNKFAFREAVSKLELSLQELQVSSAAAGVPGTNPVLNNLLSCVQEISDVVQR

[2] = biological target: protein kinases (human kinome) (Homo sapiens, UniProt P07947); conditions: YES1 (P07947)
Sequence of protein kinases (human kinome) (Homo sapiens, UniProt P07947) (P07947 whole entry): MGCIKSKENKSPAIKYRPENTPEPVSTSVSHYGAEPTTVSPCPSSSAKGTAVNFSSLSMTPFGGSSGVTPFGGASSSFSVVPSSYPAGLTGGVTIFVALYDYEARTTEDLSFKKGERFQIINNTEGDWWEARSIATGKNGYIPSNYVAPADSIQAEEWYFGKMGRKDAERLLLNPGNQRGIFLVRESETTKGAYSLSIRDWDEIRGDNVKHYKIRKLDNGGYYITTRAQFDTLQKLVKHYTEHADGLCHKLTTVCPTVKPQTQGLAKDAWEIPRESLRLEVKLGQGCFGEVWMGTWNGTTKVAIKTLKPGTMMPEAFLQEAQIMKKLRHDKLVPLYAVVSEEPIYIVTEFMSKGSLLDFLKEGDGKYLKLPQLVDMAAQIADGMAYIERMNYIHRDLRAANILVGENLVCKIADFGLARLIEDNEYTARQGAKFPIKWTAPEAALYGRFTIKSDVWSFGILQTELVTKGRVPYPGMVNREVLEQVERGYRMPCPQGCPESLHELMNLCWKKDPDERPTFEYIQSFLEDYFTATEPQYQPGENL

[3] = biological target: T1, protein kinases (human kinome) (Homo sapiens, UniProt Q12851); conditions: for logFC MAP4K2 (Q12851): direction down; for logFC: MAP4K2 (Q12851)
T1 sequence (Q12851 1-820): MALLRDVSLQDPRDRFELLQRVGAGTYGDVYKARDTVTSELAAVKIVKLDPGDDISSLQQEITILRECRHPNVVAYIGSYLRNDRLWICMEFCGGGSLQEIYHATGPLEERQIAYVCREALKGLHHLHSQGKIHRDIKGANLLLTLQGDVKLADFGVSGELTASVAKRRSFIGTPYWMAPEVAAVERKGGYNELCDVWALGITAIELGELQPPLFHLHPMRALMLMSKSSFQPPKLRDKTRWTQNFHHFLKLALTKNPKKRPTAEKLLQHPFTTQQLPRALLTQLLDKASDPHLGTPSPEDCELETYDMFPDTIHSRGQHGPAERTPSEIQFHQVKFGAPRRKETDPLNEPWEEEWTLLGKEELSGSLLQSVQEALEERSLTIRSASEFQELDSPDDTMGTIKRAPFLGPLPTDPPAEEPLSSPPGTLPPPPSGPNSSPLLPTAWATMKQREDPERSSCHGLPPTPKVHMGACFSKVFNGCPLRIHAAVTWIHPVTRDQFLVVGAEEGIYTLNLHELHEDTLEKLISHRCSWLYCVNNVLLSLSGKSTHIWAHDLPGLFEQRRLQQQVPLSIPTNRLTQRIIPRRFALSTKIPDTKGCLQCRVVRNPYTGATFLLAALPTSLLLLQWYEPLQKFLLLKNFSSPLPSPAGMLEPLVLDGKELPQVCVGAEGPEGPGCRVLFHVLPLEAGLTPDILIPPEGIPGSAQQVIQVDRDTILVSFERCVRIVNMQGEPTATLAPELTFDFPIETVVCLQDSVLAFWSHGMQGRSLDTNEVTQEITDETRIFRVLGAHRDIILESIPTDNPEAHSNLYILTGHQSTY

[4] = biological target: protein kinases (human kinome) (Homo sapiens, UniProt Q16539); conditions: for logFC MAPK14: MAPK14, accession Q16539, direction of change down
Sequence of protein kinases (human kinome) (Homo sapiens, UniProt Q16539) (Q16539 whole entry): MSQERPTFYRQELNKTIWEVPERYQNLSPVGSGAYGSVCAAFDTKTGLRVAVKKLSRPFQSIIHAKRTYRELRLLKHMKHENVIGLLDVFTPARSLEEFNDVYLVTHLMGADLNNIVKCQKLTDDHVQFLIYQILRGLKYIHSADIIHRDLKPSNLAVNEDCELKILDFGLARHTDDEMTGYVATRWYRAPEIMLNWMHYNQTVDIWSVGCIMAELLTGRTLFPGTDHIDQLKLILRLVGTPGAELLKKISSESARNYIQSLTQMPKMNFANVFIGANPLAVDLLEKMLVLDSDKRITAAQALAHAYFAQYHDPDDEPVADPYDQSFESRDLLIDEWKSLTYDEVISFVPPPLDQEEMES

[5] = biological target: protein kinases (human kinome) (Homo sapiens, UniProt P45984)
Sequence of protein kinases (human kinome) (Homo sapiens, UniProt P45984) (P45984 whole entry): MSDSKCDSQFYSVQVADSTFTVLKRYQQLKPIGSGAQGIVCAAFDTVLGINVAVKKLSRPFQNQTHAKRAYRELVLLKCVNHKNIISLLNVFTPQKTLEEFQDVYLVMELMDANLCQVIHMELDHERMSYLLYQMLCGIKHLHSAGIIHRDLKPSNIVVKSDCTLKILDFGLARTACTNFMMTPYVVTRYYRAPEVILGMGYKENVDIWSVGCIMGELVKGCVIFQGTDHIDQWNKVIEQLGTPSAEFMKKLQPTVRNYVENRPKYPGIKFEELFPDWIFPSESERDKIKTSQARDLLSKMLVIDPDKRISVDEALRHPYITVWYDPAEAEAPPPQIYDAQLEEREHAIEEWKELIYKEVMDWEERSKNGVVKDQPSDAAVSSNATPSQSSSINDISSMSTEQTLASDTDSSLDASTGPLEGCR

[6] = biological target: protein kinases (human kinome) (Homo sapiens, UniProt Q13233)
Sequence of protein kinases (human kinome) (Homo sapiens, UniProt Q13233) (Q13233 whole entry): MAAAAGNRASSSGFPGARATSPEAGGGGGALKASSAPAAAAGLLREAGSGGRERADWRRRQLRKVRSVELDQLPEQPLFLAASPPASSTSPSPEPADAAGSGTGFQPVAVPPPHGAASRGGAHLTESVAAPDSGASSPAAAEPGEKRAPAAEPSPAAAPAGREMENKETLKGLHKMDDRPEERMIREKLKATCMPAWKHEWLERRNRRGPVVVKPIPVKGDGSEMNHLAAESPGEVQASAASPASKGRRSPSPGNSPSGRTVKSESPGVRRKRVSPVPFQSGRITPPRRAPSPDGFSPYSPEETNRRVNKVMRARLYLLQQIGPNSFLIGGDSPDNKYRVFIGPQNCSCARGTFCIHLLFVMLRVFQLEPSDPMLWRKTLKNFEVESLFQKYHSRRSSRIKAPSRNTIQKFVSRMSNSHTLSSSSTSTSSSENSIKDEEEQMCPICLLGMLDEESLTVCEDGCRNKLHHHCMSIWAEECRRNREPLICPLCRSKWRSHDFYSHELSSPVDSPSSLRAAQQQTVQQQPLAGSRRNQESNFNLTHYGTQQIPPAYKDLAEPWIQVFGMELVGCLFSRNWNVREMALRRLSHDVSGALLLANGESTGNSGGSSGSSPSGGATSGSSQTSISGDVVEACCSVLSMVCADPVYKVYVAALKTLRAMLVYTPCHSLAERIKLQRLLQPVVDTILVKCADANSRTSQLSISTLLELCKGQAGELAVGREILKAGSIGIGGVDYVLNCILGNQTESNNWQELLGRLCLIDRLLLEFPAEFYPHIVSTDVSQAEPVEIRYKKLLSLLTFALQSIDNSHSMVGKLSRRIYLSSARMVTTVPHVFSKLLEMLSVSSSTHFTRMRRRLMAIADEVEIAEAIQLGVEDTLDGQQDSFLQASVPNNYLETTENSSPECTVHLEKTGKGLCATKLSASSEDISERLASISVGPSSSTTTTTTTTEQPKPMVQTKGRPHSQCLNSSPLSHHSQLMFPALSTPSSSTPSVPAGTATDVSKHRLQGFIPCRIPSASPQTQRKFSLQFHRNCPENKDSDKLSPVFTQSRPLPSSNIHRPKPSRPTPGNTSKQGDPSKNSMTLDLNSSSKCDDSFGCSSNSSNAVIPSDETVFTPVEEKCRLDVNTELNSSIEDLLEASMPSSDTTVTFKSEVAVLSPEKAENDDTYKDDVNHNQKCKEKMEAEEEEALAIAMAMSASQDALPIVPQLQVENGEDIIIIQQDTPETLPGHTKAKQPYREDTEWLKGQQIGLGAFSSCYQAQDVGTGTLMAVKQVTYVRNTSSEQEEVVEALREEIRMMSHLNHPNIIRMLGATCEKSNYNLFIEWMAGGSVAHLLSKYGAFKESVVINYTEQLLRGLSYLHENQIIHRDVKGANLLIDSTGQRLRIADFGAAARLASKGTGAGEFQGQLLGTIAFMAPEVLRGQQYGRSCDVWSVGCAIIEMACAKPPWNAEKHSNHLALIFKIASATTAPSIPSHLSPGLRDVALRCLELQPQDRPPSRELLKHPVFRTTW

[7] = biological target: protein kinases (human kinome) (Homo sapiens, UniProt Q07912); conditions: for logFC TNK2 (Q07912-1): direction down; for logFC TNK2: TNK2 (Q07912-1)
Sequence of protein kinases (human kinome) (Homo sapiens, UniProt Q07912) (Q07912 whole entry): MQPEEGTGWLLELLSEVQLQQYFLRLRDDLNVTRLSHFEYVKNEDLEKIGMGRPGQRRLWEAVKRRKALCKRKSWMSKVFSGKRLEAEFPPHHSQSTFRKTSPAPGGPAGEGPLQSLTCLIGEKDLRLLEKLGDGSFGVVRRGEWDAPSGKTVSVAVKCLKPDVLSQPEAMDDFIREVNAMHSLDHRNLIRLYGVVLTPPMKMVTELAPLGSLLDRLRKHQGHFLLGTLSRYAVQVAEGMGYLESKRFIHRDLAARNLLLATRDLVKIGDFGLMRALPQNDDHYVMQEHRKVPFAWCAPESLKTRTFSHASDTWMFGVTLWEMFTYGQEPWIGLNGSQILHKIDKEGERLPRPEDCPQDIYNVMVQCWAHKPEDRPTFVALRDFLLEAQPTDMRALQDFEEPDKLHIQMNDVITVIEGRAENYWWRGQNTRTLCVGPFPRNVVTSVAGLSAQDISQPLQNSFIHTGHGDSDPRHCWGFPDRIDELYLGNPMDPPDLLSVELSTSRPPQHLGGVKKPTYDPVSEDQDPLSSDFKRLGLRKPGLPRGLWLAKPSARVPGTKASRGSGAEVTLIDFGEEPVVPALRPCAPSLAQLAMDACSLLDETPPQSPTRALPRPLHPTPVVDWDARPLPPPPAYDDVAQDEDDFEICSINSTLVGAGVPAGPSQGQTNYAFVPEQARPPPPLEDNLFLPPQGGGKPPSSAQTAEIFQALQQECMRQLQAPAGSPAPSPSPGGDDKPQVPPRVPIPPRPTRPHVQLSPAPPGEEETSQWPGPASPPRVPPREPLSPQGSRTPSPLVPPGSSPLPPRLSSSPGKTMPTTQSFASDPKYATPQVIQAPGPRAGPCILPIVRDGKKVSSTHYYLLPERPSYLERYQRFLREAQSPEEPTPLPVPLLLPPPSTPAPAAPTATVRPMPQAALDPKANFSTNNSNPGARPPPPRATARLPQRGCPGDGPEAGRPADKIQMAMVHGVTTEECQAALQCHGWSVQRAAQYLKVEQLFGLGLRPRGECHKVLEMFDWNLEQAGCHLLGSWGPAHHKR

[8] = MAPK9 P45984-1, experiment wp045
[9] = MAPK9 P45984-1, experiment wp103
[10] = MAPK9 P45984-1, experiment wp105
[11] = MAPK9 P45984-1, experiment wp107
[12] = MAPK9 P45984-1, experiment wp114
[13] = MAPK9 P45984-1, experiment wp117
[14] = MAPK9 P45984-1, experiment wp160, 2 hr
[15] = MAPK9 P45984-1, experiment wp160, 4 hr
[16] = MAPK9 P45984-1, experiment wp160, 8 hr
[17] = MAPK9 P45984-1, experiment wp172

## Cc1ccc(NC(=O)c2cccc(C(F)(F)F)c2)cc1N1Cc2cnc(Nc3ccc(N4CCN(Cc5cn(CCCCCOc6cccc7c6C(=O)N(C6CCC(=O)NC6=O)C7=O)nn5)CC4)nc3)nc2N(C)C1=O (stereo not drawn) [DB0646, N-(3-(7-((6-(4-((1-(5-((2-(2,6-Dioxopiperidin-3-yl)-1,3-dioxoisoindolin-4-yl)oxy)pentyl)-1H-1,2,3-triazol-4-yl)methyl)piperazin-1-v)pyridin-3-yl)amino)-1-methyl-2-oxo-1,4-dihydropyrimido[4,5-d]pyrimidin-3(2H)-yl)-4-methylphenyl)-3-(trifluoromethyl)benzamide]
[1]; 4 hr
  logFC: −0.5029
[1]; 8 hr
  logFC: −0.7288
[1]
  logFC: −0.5941 and −0.5342 and −0.5362
[1]; Experiment wp045
  logFC ABL2 (P42684): −0.5941
[1]; Experiment wp107
  logFC ABL2 (P42684): −0.5342
[1]; experiment wp152
  logFC ABL2 (P42684): −0.5362
[1]; experiment wp160, 4 hr
  logFC ABL2 (P42684): −0.5029
[1]; experiment wp160, 8 hr
  logFC ABL2 (P42684): −0.7288
[2]; experiment wp105
  logFC: −0.3957
[2]; experiment wp105, direction down
  logFC: −0.3957
[2]; experiment wp172
  logFC: −0.471
[2]; experiment wp172, direction down
  logFC: −0.471
[3]; Experiment wp045
  logFC MAP4K2 (Q12851): −0.7569
[3]; Experiment wp103
  logFC MAP4K2 (Q12851): −0.4625
[3]; Experiment wp107
  logFC MAP4K2 (Q12851): −0.6245
[3]; Experiment wp117
  logFC MAP4K2 (Q12851): −0.5616
[3]; Experiment wp152
  logFC MAP4K2 (Q12851): −0.7981
[3]; Experiment wp160, 4 hr
  logFC MAP4K2 (Q12851): −0.6132
[3]; Experiment wp160, 8 hr
  logFC MAP4K2 (Q12851): −1.155
[3]; experiment wp045
  logFC: −0.7569
[3]; experiment wp103
  logFC: −0.4625
[3]; experiment wp107
  logFC: −0.6245
[3]; experiment wp117
  logFC: −0.5616
[3]; experiment wp152
  logFC: −0.7981
[3]; experiment wp160, 4 hr
  logFC: −0.6132
[3]; experiment wp160, 8 hr
  logFC: −1.155
[4]; Accession Q16539, experiment wp172
  logFC of MAPK14: −0.6469
[4]; MAPK14 (Q16539) protein abundance, degrader vs DMSO, down
  logFC: −0.7793 and −0.6013
[4]; MAPK14 (Q16539), experiment wp107
  logFC: −0.7601
[4]; MAPK14 (Q16539), experiment wp114
  logFC: −0.5814
[4]; MAPK14 (Q16539), experiment wp117
  logFC: −0.6392
[4]; MAPK14 (Q16539), experiment wp152
  logFC: −0.7821
[4]; MAPK14 (Q16539), experiment wp160, 2 hr
  logFC: −0.4404
[4]; MAPK14 (Q16539), experiment wp160, 4 hr
  logFC: −0.7162
[4]; MAPK14 (Q16539), experiment wp160, 8 hr
  logFC: −1.153
[4]; MAPK14 (Q16539), experiment wp172
  logFC: −0.6469
[4]; experiment wp045
  logFC MAPK14: −0.7793
[4]; experiment wp103
  logFC MAPK14: −0.6013
[4]; experiment wp107
  logFC MAPK14: −0.7601
[4]; experiment wp114
  logFC MAPK14: −0.5814
[4]; experiment wp117
  logFC MAPK14: −0.6392
[4]; experiment wp152
  logFC MAPK14: −0.7821
[4]; experiment wp160, 2 hr
  logFC MAPK14: −0.4404
[4]; experiment wp160, 4 hr
  logFC MAPK14: −0.7162
[4]; experiment wp160, 8 hr
  logFC MAPK14: −1.153
[5]; Experiment wp152, direction of change down
  logFC MAPK9 (P45984): −2.161
[5]; [8]
  logFC: −1.344
  logFC MAPK9: −1.344
[5]; [9]
  logFC: −1.045
  logFC MAPK9: −1.045
[5]; [10]
  logFC: −0.929
  logFC MAPK9: −0.929
[5]; [11]
  logFC: −1.414
  logFC MAPK9: −1.414
[5]; [12]
  logFC: −0.5078
  logFC MAPK9: −0.5078
[5]; [13]
  logFC: −1.488
  logFC MAPK9: −1.488
[5]; [14]
  logFC: −0.7555
  logFC MAPK9: −0.7555
[5]; [15]
  logFC: −1.498
  logFC MAPK9: −1.498
[5]; [16]
  logFC: −2.137
  logFC MAPK9: −2.137
[5]; [17]
  logFC: −0.8343
  logFC MAPK9: −0.8343
[5]; MAPK9 P45984, experiment wp152
  logFC MAPK9: −2.161
[6]; Accession Q13233, experiment wp107, direction down
  logFC MAP3K1: −0.3767
[6]; Accession Q13233, experiment wp152, direction down
  logFC MAP3K1: −0.6139
[6]; Accession Q13233, experiment wp160, 8 hr, direction down
  logFC MAP3K1: −0.7241
[6]; MAP3K1 (Q13233), experiment wp107
  logFC MAP3K1: −0.3767
[6]; MAP3K1 (Q13233), experiment wp152
  logFC MAP3K1: −0.6139
[6]; MAP3K1 (Q13233), experiment wp160, 8 hr
  logFC MAP3K1: −0.7241

## CC(C)S(=O)(=O)c1ccccc1Nc1nc(Nc2ccc(N3CCN(CCOCCNC(=O)CNc4cccc5c4C(=O)N(C4CCC(=O)NC4=O)C5=O)CC3)cc2)ncc1Cl (stereo not drawn) [SK.3.91]
[1]; 1 uM
  logFC: −1.077
[1]; 2 hr
  logFC: −0.3453
[1]; 4 hr
  logFC: −0.8519 and −0.7658
[1]; Experiment wp107
  logFC ABL2 (P42684): −1.032
[1]; experiment wp016
  logFC ABL2 (P42684): −0.4963
[1]; experiment wp016, 1 uM
  logFC ABL2 (P42684): −1.077
[1]; experiment wp133, 2 hr
  logFC ABL2 (P42684): −0.3453
[1]; experiment wp133, 4 hr
  logFC ABL2 (P42684): −0.8519
[1]; experiment wp160, 4 hr
  logFC ABL2 (P42684): −0.7658
[2]; experiment wp133, 4 hr
  logFC: −0.5025
[2]; experiment wp133, 4 hr, direction down
  logFC: −0.5025
[6]; Accession Q13233, experiment wp105, direction down
  logFC MAP3K1: −0.3258
[6]; MAP3K1 (Q13233), experiment wp105
  logFC MAP3K1: −0.3258
[7]; Experiment wp133, 2 hr
  logFC TNK2 (Q07912-1): −1.053
[7]; Experiment wp133, 4 hr
  logFC TNK2 (Q07912-1): −2.261
[7]; experiment wp133, 2 hr
  logFC TNK2: −1.053
[7]; experiment wp133, 4 hr
  logFC TNK2: −2.261
